Patent US10813920B2, “Drug for treating corneal endothelium by promoting cell proliferation or inhibiting cell damage” (THE DOSHISHA, priority 2013, dated 2020)

What was measured:
[1] = tested on: corneal endothelium; assay: Monkey corneal endothelial partial disorder model, eye drops, Ki-67 immunostaining; format: in vivo, cynomolgus monkey; conditions: 3 mM eye drops, 50 μl, 4 times a day, right eye; vs base agent in left eye; 5 views per eye; p<0.01
Protocol: After a stainless steel bar with a diameter of 7 mm was cooled with liquid nitrogen, the bar was contacted with the corneal in both eyes of 2 cynomolgus monkeys (purchased from Shiga University of Medical Science). About 7 mm in diameter of the corneal endothelium fell off to make a partial disorder model.
50 μl of SB203580 (3 mM) eyedrops was then administered into the right eye 4 times a day. Similarly, eye drops of abase agent, which is phosphate buffer solution, were administered into the left eye as the control.
Expression of Ki-67 associated with cell proliferation was confirmed to be elevated after administration of SB203580 eye drops by immunostaining. The methodology of immunostaining was in accordance with the above-described Preparation Example 2. The antibodies were changed to antibodies to Ki-67 to conduct the experiment.
For a tissue staining inspection, cultured cells were immobilized with 4% formaldehyde for 10 minutes at room temperature (RT) and incubated for 60 minutes with 1% bovine serum albumin (BSA). The antibodies to Ki-67 were diluted 1:200 to conduct the inspection. For secondary antibodies, a 1:1000 dilution of Alexa Fluor® 488 labeling goat antimouse IgG (Life Technologies) was used. […] Slides were then observed under a fluorescence microscope (all-in-one fluorescence microscope, KEYENCE, Osaka, JAPAN). […]

[2] = tested on: p38 MAP kinase signal; assay: Western blotting of phosphorylated ATF2, downstream molecule of p38 MAP kinase signal; format: cell-based, human; conditions: Western blotting after 20 days from stimulation; 10 μM and 30 μM
Protocol: *Human corneal endothelial cells (HCEC, where the cells were obtained and culturing method thereof): HCEC was cultured as follows. In short, Descemet's membrane including corneal endothelial cells was peeled off from a corneal for research purchased from the Seattle Eye Bank, and the corneal endothelial cells were mechanically peeled off with a basal membrane. […] Specifically, after digestion at 37° C., HCEC obtained from individual corneas was resuspended in a culture medium and plated on a well of a 12-well plate coated with FNC Coating Mix®. The culture medium was prepared in accordance with a partially-modified disclosed protocol. In short, a basal cultural medium containing OptiMEM-I (Life Technologies), 8% FBS, 5 ng/mL of epithelial growth factor (EGF) (Sigma-Aldrich Co., St. Louis, Mo.), 20 μg/mL of ascorbic acid (Sigma-Aldrich), 200 mg/L calcium chloride (Sigma-Aldrich), 0.08% chondroitin sulfate (Wako Pure Chemical Industries, Osaka) and 50 μg/mL of gentamicin was prepared and an acclimated medium was collected after inactivated 3T3 fibroblasts were cultured. The 3T3 fibroblasts were inactivated as previously described. […] Immunostaining was applied to the cells for observation with a fluorescence microscope. […]

[3] = tested on: corneal endothelial cells; assay: Western blotting of cyclin dependent kinase inhibiting factors and G1/S transition molecules in cultured corneal endothelial cells; format: cell-based, human
[4] = tested on: human corneal endothelial cells; assay: Cytokine antibody array (Proteome Profiler) of corneal endothelial culture supernatant; format: cell-based; conditions: 10 μM, semi quantitative
Protocol: Corneal endothelial cells were cultured in the presence of 10 μM SB203580, and culture supernatant was collected as a sample solution. Cytokines in the culture supernatant were comprehensively measured semi quantitatively with a Proteome Profiler (# ARY005, R&D). A membrane blotted with cytokine antibodies was placed in a tray. 2 ml of blocking solution was added and the membrane was incubated for 1 hour at room temperature. Biotin antibodies were added to the sample solution and incubated for 1 hour at room temperature. The blocking solution was discarded. The membrane was immersed in an antibody solution and incubated overnight at 4° C. After washing the membrane, 2 ml of HRP labeling streptavidin solution diluted with a blocking solution was added and the membrane was incubated at room temperature for 30 minutes. After washing the membrane, a substrate solution was added for detection with LAS400 (Fuji Film).
Based on the aforementioned experimental methodology, a cytokine antibody array (Proteome Profiler, # ARY005, R&D Systems) blotted with 36 types of antibodies was used to find the expression pattern of cytokines in a human corneal endothelial culture solution.

[5] = cited from earlier work
[6] = Western blotting after 20 days, 10 μM and 30 μM vs control
[7] = Western blotting, 10 μM, after 12 hours and 24 hours

C[S+]([O-])c1ccc(-c2nc(-c3ccncc3)c(-c3ccc(F)cc3)[nH]2)cc1 (centres unmarked) [SB203580, 4-(4-fluorophenyl)-2-(4-methylsulfinylphenyl)-5-(4-pyridyl)-1H-imidazole]
percentage of Ki67 positive cells in corneal endothelium [1]: significantly more Ki67 positive cells | phosphorylation of ATF2 [2]: suppressed | expression of p16 [3, 6]: suppressed | expression of p21 [3, 6]: suppressed | expression of p27 [3, 6]: suppressed | Rb protein phosphorylation (p-pRb) [3, 7]: promoted | cyclin D1 expression [3, 7]: promoted | cyclin D3 expression [3, 7]: promoted | Cytokines other than serpinE1 (GROa, sICAM-1, IL-6, IL-8, IL-23, MCP-1, MIF) in culture supernatant [4]: decreased relative to vehicle | solubility in methanol ([5]; methanol): soluble | solubility in water (pharmacopoeia class) ([5]; water): difficult to dissolve (100 mL or greater and less than 1000 mL)
